Reference: publication PMC12508057, “Discovery of ETI41 and ETI60: novel selective endosomal Toll-like receptor inhibitors for the treatment of autoimmune diseases” (Experimental & Molecular Medicine, 2025)
Where two headings read alike, the source gives them in different places.

Experiments:
[1] = tested on: endosomal and lysosomal pH; assay: pH assay of endosomes and lysosomes in RAW 264.7; assay type: cell-based, mouse
Method: RAW 264.7 cells were seeded into black 96-well plates at […] cells per well and incubated overnight. After washing, the cells were treated with phenol-free RPMI 1640 medium (Gibco). Following 30 min of treatment with ETI41 or ETI60, cells were incubated with 20 µg/ml of pHrodo Red Dextran (Thermo Fisher Scientific) or 10 µM LysoSensor Yellow/Blue DND-160 (Thermo Fisher Scientific). Fluorescence was measured using a BioTek Synergy HTX Multimode Microplate Reader. Data were analyzed using the BioTek Gen5 software.
Fig. 3 Binding mechanism of ETI41 and ETI60 with TLR7 and TLR9. a ETI41 and ETI60 bind to the extracellular domain of TLR7. b Detailed intermolecular interactions ofETI41 and ETI60 are shown with the key residues of TLR7. c ETI41 and ETI60 bind to the extracellular domain of TLR9. d Intermolecular interactions of ETI41 and ETI60 with the key residues of TLR9. The asterisk indicates chain A of TLR7 and TLR9. ETI41 and ETI60 are depicted in ball-and-stick models. Bonds are represented by lines, with distances measured in ångström (Å) units. […] Data presented are from three independent experiments (n = 3), and statistical differences between the induced case and other cases were analyzed and verified using a one-tailed Student’s t-test (*P < 0.05, **P < 0.01, ***P < 0.001). […]

[2] = tested on: endosomal TLRs; assay: Endosomal TLR-mediated TNF-α production, summary over cell lines; assay type: cell-based; settings: dose-dependent, without inducing cytotoxic effects
Method: RAW 264.7 and differentiated THP-1 cells were seeded into 96-well plates at 2 × 10^4 cells per well, while Daudi cells were seeded at 5 × 10^4 cells per well. After stabilization for 30 min, cells were stimulated with specific TLR agonists for 4 or 24 h. Supernatants were diluted and transferred to precoated ELISA plates to measure TNF-α secretion using kits from Invitrogen. Optical absorbance was measured using a BioTek Synergy HTX multimode microplate reader, and data were interpolated using BioTek Gen5 software.
TLR activation triggers the NF-κB pathway, resulting in increased production of pro-inflammatory cytokines, such as TNF-α and IL-6.

SMILES: Cc1cc2c(N)c3c(nc2n1CCCN(C)C)CCCCCC3 [ETI41]
- Toxicity tests (doses ranging from 150 to 300 mg/kg): confirmed their safety
- pH of endosomes containing TLR3, TLR7, TLR8 and TLR9 [1]: did not significantly affect
- TNF-α production by RAW 264.7 and Daudi cells [2]: effectively inhibited

SMILES: COc1ccc2c3c(N)c4c(nc3n(CCCN(C)C)c2c1)CCCC4 [ETI60]
- Toxicity tests (in vivo): confirmed their safety
- pH of endosomes containing TLR3, TLR7, TLR8 and TLR9 [1]: did not significantly affect
- TNF-α production by RAW 264.7 and Daudi cells [2]: effectively inhibited
